In publication PMC7939384, “In crystallo screening for proline analog inhibitors of the proline cycle enzyme PYCR1” (The Journal of Biological Chemistry, 2021):
Where “and” joins values, the source holds several entries; their conditions need not be identical. Equal values may be shown once.

Biological target: T1, human PYCR1 (Homo sapiens, UniProt P32322)
T1 sequence (P32322 1-300): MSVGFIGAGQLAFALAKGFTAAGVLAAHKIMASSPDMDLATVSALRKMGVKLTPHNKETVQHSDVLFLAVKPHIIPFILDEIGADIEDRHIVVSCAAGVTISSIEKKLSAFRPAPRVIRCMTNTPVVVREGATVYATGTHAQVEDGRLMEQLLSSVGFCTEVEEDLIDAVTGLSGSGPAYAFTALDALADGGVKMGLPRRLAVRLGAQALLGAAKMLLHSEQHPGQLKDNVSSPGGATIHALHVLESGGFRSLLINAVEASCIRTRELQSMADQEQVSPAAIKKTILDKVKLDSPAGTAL
Assay: biochemical
Details: for Ki: competitive with P5C, NADH fixed 175 μM
Experimental: Over two dozen proline analogs (Fig. 2) were screened using electron density from X-ray crystallography as the readout for binding to human PYCR1. […] Because the compounds bind in the P5C/proline site, the mechanism of inhibition was assumed to be competitive with P5C. Therefore, steady-state kinetic measurements were performed with L-P5C as the variable substrate (0-1000 μM) and NADH fixed (175 μM) (Fig. 3). For each compound, the data were fit globally to a competitive inhibition model (Equation 1) to obtain an inhibition constant, Ki.
B, THFA. C, CPC. D, T4C. E, T2C. F, NFLP. The data were measured in 50 mM Tris (pH 7.5) with 1 mM EDTA disodium salt while holding NADH fixed at 175 μM and varying D,L-P5C (0–2000 μM). The concentration of the substrate L-P5C was considered to be half the total D,L-P5C concentration added to the assays. Curves represent global fits of the data to a competitive inhibition model showing initial velocity in units of µM [NAD^+] s^−1 as a function of L-P5C concentration (µM).
A C-terminal truncation variant of human PYCR1, which includes residues 1–300 of the full-length 319-residue enzyme, was used for kinetics and X-ray crystallography ([18]). PYCR1 was overexpressed in Escherichia coli BL21 (DE3) competent cells and purified using methods similar to those previously reported ([18]). Harvested cells were lysed via sonication in a mixture containing DNase I, lysozyme, and 0.2 mM phenylmethylsulfonyl fluoride protease inhibitor, and then the insoluble material was removed via centrifugation at 16,000 rpm for 1 h at 4°C. The resulting lysate was purified by gravity-flow chromatography on a column containing Ni^2+–nitrilotriacetic acid resin (Qiagen) pre-equilibrated with binding buffer consisting of 50 mM HEPES, 300 mM NaCl, 10 mM imidazole, and 5% (w/v) glycerol at pH 7.8 (buffer A). The column was washed with buffer A supplemented with 30 mM imidazole, and then the bound protein was eluted with buffer A supplemented with 300 mM imidazole. Elution fractions containing PYCR1 were identified by SDS-PAGE and prepared for further purification by size-exclusion chromatography by dialyzing into 300 mM NaCl, 2% (w/v) glycerol, and 50 mM HEPES at pH 7.5. Size-exclusion chromatography was performed on a HiLoad 16/600 Superdex 200 column equilibrated with 50 mM HEPES, pH 7.8, 300 mM NaCl, and 5% (w/v) glycerol. Purified PYCR1 was concentrated to 8 mg/ml and stored at 4°C for subsequent crystallization trials.
Kinetic measurements were performed in a BioTek Epoch 2 microplate spectrophotometer using Corning 96-well UV-transparent microplates. Activity assays were performed by monitoring the consumption of NADH at 340 nm (ε340 = 6220 M^−1 cm^−1) using P5C as the substrate. D,L-P5C was synthesized as described previously ([45]), quantified using o-aminobenzaldehyde (o-AB), and stored in 1 M HCl at 4°C. Neutralization of D,L-P5C to pH 7.5 was performed immediately prior to assays using 1 M Tris (pH 7.5) and 6 M NaOH. The concentration of the substrate L-P5C was assumed to be half the total D,L-P5C concentration added to the assays.
The following microplate protocol was employed. Substrate mixtures containing P5C, NADH, EDTA, and Tris buffer were prepared in a deep well block for each P5C concentration. Mixtures containing enzyme and various concentrations of the inhibitor were prepared in microcentrifuge tubes and incubated on ice in buffer containing 50 mM HEPES pH 7.8, 300 mM NaCl, and 5% (w/v) glycerol. The final concentration of PYCR1 in the assay was 6.25 nM. Twenty μl of the enzyme-analog mixture was added to microplate wells using a single-channel pipette, and then the reaction was initiated by addition of 180 μl of the substrate mixtures using a multi-channel pipettor. The reaction traces were followed for 35 min.

**Q.** How did the Ki (Ki (estimated), rounded values) turn out when `O=CN1CCC[C@H]1C(=O)O` [NFLP, N-formyl L-proline] was run?
**A.** The Ki was 100 µM and ~100 µM.

**Q.** And the Ki (Ki, 50 mM Tris pH 7.5, global fit)?
**A.** The Ki was 99 ± 7.7 µM.

**Q.** What about the “binding free energy equivalent of the affinity increase” value (NFLP relative to proline) of the same molecule?
**A.** The value was about 1.7 kcal/mol.

**Q.** What about the “increase in affinity by addition of the formyl group to proline” value (NFLP relative to proline) of the same molecule?
**A.** Its value is 17 fold.

**Q.** And the kcat (kcat for L-P5C at fixed NADH 175 μM, global fit of the data set with this analog)?
**A.** Its kcat is 52 ± 2 s⁻¹.
